Reference: US20040097376A1, “Substituted aryl ketones and their use as herbicides” (priority 2000, published 2004)

Assays:
[1] = tested on: weeds; assay: Pre-emergence test (Example A), effect on weeds; assay type: in vivo; details: soil sprayed 24 hours after sowing, assessed after three weeks
Method: To produce an expedient preparation of active substance, 1 part by weight of active substance is mixed with the stated amount of solvent, the stated amount of emulsifier is added and the concentrate is diluted with water to the required concentration.
Seeds of the test plants are sown in normal soil. After 24 hours, the soil is sprayed with the active substance preparation in such a way that the respective desired application rate of active substance per unit area is achieved. The active substance concentration in the spray liquor is selected so that the respective required application rate of active substance is achieved with 1000 litres of water per hectare.
After three weeks, the degree of damage to the plants is assessed in % damage by comparison with the development of the untreated control.

[2] = tested on: weeds; assay: Post-emergence test (Example B), effect on weeds; assay type: in vivo; details: test plants 5-15 cm high sprayed, assessed after three weeks
Method: To produce an expedient preparation of active substance, 1 part by weight of active substance is mixed with the stated amount of solvent, the stated amount of emulsifier is added, and the concentrate is diluted with water to the required concentration.
The active substance preparation is used to spray test plants which are 5-15 cm high in such a way that the respective desired application rate of active substance per unit area is achieved. The concentration of the spray liquor is chosen so that the respective required application rates of active substance are achieved in 1000 l of water/ha.
After three weeks, the degree of damage to the plants is assessed in % damage by comparison with the development of the untreated control. The meanings are:
0%=no effect (as untreated control)

[3] = logP determination by HPLC on reversed phase column (C 18), EEC Directive 79/831 Annex V.A8; assay type: physicochemical; details: reversed phase C18 HPLC column; pH=2.3
Method: Determination of the logP values indicated in Table 1 took place in accordance with EEC Directive 79/831 Annex V.A8 by HPLC (high performance liquid chromatography) on a reversed phase column (C 18). Temperature: 43° C. (a) Eluent for determination in the acidic range: 0.1% aqueous phosphoric acid, acetonitrile; linear gradient from 10% acetonitrile to 90% acetonitrile—corresponding measured results are marked with ^a) in Table 1. Calibration took place with unbranched alkan-2-ones (having 3 to 16 carbon atoms) whose logP values are known (determination of the logP values on the basis of the retention times by linear interpolation between two consecutive alkanones).

N#C/N=C1\SCCN1Cc1c(Cl)ccc(C(=O)C2C(=O)CCCC2=O)c1Cl [Example 1, 3-[2,6-dichloro-3-[(2,6-dioxocyclohexyl)carbonyl]benzyl]-1,3-thiazolidin-2-ylidenecyanamide]
effect on weeds (degree of damage vs untreated control) [1]: strong effect on weeds | effect on weeds (degree of damage vs untreated control) [2]: strong effect on weeds

N#C/N=C1\SCCN1Cc1cc(C(F)(F)F)ccc1C(=O)C1C(=O)CCCC1=O [Example 2, 3-[2-[(2,6-dioxocyclohexyl)carbonyl]-5-trifluoromethyl-benzyl]-1,3-thiazolidin-2-ylidenecyanamide]
chromatographic logP [3]: 2.54 | effect on weeds (degree of damage vs untreated control) [1]: strong effect on weeds

N#C/N=C1\SCCN1Cc1cc(C(F)(F)F)ccc1C(=O)O [Example (II-2), 2-[(2-cyanoimino-1,3-thiazolidin-3-yl)methyl]-4-trifluoro-methylbenzoic acid]
chromatographic logP [3]: 2.01

COC(=O)c1ccc(C(F)(F)F)cc1CN1CCS/C1=N\C#N [Example (IIa-2), methyl 2-[(2-cyanoimino-1,3-thiazolidin-3-yl)methyl]-4-trifluoromethylbenzoate]
chromatographic logP [3]: 2.53
